Measurements as given in ChEMBL document CHEMBL6182851, “Discovery of dual CDK4/6 and BRD4 inhibitor as apoptosis and autophagy inducers against NSCLC in vitro and in vivo” (Eur J Med Chem, 2025).

Key:
Test in all cases: cells
NCI-H460 = conditions: Homo sapiens, NCI-H460, 48 h
Description: Antitumor activity against human NCI-H460 cells assessed as inhibition of cell viability incubated for 48 hrs by MTT assay

A549 = conditions: Homo sapiens, A549, 48 h
Description: Antitumor activity against human A549 cells assessed as inhibition of cell viability incubated for 48 hrs by MTT assay

NCI-H1299 = conditions: Homo sapiens, NCI-H1299, 48 h
Description: Antitumor activity against human NCI-H1299 cells assessed as inhibition of cell viability incubated for 48 hrs by MTT assay

IC50 (NCI-H460) [µM]	IC50 (A549) [µM]	IC50 (NCI-H1299) [µM]	SMILES
26.5	> 40	19.5	COc1cc(OC)c2c(=O)[nH]c(-c3ccc(OCC(=O)N4CCN(c5ccc(Nc6ncc7cc(C(=O)N(C)C)n(C8CCCC8)c7n6)nc5)CC4)c(F)c3)nc2c1
> 40	18.8	> 40	COc1cccc2nc(-c3ccc(OCC(=O)N4CCN(c5ccc(Nc6ncc7cc(C(=O)N(C)C)n(C8CCCC8)c7n6)nc5)CC4)cc3)[nH]c(=O)c12
> 40	> 40	17.2	Cc1cccc2c(=O)[nH]c(-c3ccc(OCC(=O)N4CCN(c5ccc(Nc6ncc7cc(C(=O)N(C)C)n(C8CCCC8)c7n6)nc5)CC4)cc3)nc12
32.1	> 40	> 40	Cc1ccc2c(=O)[nH]c(-c3ccc(OCC(=O)N4CCN(c5ccc(Nc6ncc7cc(C(=O)N(C)C)n(C8CCCC8)c7n6)nc5)CC4)cc3)nc2c1
34.3	> 40	> 40	Cc1cc(-c2nc3ccc(F)cc3c(=O)[nH]2)ccc1OCC(=O)N1CCN(c2ccc(Nc3ncc4cc(C(=O)N(C)C)n(C5CCCC5)c4n3)nc2)CC1
25.8	32.5	14.3	COc1cc(OC)c2c(=O)[nH]c(-c3cc(C)c(OCCCC(=O)NNc4ncc5cc(C(=O)N(C)C)n(C6CCCC6)c5n4)c(C)c3)nc2c1
38.4	> 40	> 40	COc1cc2nc(-c3ccc(OCC(=O)N4CCN(c5ccc(Nc6ncc7cc(C(=O)N(C)C)n(C8CCCC8)c7n6)nc5)CC4)cc3)[nH]c(=O)c2cc1OC
> 40	> 40	> 40	CN(C)C(=O)c1cc2cnc(Nc3ccc(N4CCN(C(=O)COc5ccc(-c6nc7ccc(F)cc7c(=O)[nH]6)cc5F)CC4)cn3)nc2n1C1CCCC1
22.1	3.25	9.5	CN(C)C(=O)c1cc2cnc(Nc3ccc(N4CCN(C(=O)COc5ccc(-c6nc7ccc(F)cc7c(=O)[nH]6)cc5)CC4)cn3)nc2n1C1CCCC1
34.4	> 40	21.1	CN(C)C(=O)c1cc2cnc(Nc3ccc(N4CCN(C(=O)COc5ccc(-c6nc7cc(C(F)(F)F)ccc7c(=O)[nH]6)cc5)CC4)cn3)nc2n1C1CCCC1
> 40	24.7	16.4	CN(C)C(=O)c1cc2cnc(Nc3ccc(N4CCN(C(=O)COc5c(Br)cc(-c6nc7ccc(F)cc7c(=O)[nH]6)cc5Br)CC4)cn3)nc2n1C1CCCC1
18.8	14.2	7.74	COc1cc(OC)c2c(=O)[nH]c(-c3ccc(OCC(=O)N4CCN(c5ccc(Nc6ncc7cc(C(=O)N(C)C)n(C8CCCC8)c7n6)nc5)CC4)cc3)nc2c1
